According to PubChem BioAssay AID330 (DTP/NCI, 2004):
Where “and” joins values, the source holds several entries; their conditions need not be identical. Equal values may be shown once. Toxic doses and inconclusive results are not listed. How the source made its calls: active means survival T/C of 150% or more; inactive means T/C below 125% in these data. Square brackets hold non-standard residues; d marks the D form. Peptide text beside a SMILES is read from it. * marks the point of attachment. ξ: configuration not given here. ξF = NC(Cc1ccccc1)C(=O)O; Cbz = O=C(OCc1ccccc1)*

Tested on: P388 leukemia ip, CD2F1 mice, survival T/C
Assay: NCI In Vivo Anticancer Drug Screen. Data for tumor model P388 Leukemia (intraperitoneal) in CD2F1 (CDF1) mice
Conditions: endpoint: median survival time, higher = longer survival
In short: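 Mice carrying the transplanted tumor received test compound or vehicle. Survival was recorded in each group, and the value is the treated-group measurement divided by that of the vehicle-treated control group.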

[1] = dose: 50.0 mg/kg/injection, schedule: Q01DX009 (ip), vehicle: saline
[2] = dose: 50.0 mg/kg/injection, schedule: Q01DX005 (ip), vehicle: saline with Tween-80
[3] = dose: 100.0 mg/kg/injection, schedule: Q01DX005 (ip), vehicle: saline with Tween-80
[4] = dose: 200.0 mg/kg/injection, schedule: Q01DX005 (ip), vehicle: saline with Tween-80
[5] = dose: 50.0 mg/kg/injection, schedule: Q01DX009 (ip), vehicle: Klucel (hydroxypropylcellulose) (HPC)
[6] = dose: 100.0 mg/kg/injection, schedule: Q01DX009 (ip), vehicle: Klucel (hydroxypropylcellulose) (HPC)
[7] = dose: 200.0 mg/kg/injection, schedule: Q01DX009 (ip), vehicle: Klucel (hydroxypropylcellulose) (HPC)
[8] = dose: 50.0 mg/kg/injection, schedule: Q01DX001 (ip), vehicle: saline
[9] = dose: 100.0 mg/kg/injection, schedule: Q01DX001 (ip), vehicle: saline
[10] = dose: 60.0 mg/kg/injection, schedule: Q01DX005 (ip), vehicle: saline with Tween-80
[11] = dose: 120.0 mg/kg/injection, schedule: Q01DX005 (ip), vehicle: saline with Tween-80
[12] = dose: 240.0 mg/kg/injection, schedule: Q01DX005 (ip), vehicle: saline with Tween-80
[13] = dose: 100.0 mg/kg/injection, schedule: Q01DX009 (ip), vehicle: saline with Tween-80
[14] = dose: 200.0 mg/kg/injection, schedule: Q01DX009 (ip), vehicle: saline with Tween-80
[15] = dose: 400.0 mg/kg/injection, schedule: Q01DX009 (ip), vehicle: saline with Tween-80
[16] = dose: 12.5 mg/kg/injection, schedule: Q01DX009 (ip), vehicle: saline
[17] = dose: 25.0 mg/kg/injection, schedule: Q01DX009 (ip), vehicle: saline
[18] = dose: 50.0 mg/kg/injection, schedule: Q01DX009 (ip), vehicle: saline with Tween-80

Measured: T/C

CC(=O)NS(=O)(=O)c1ccc(N=CC2C(=O)N(c3ccccc3)N(c3ccccc3)C2=O)cc1
inactive: dose: 25.0 mg/kg/injection, schedule: Q01DX001 (ip), vehicle: Klucel (hydroxypropylcellulose) (HPC) 86 % of control | dose: 50.0 mg/kg/injection, schedule: Q01DX001 (ip), vehicle: Klucel (hydroxypropylcellulose) (HPC) 91 % of control | dose: 100.0 mg/kg/injection, schedule: Q01DX001 (ip), vehicle: Klucel (hydroxypropylcellulose) (HPC) 92 % of control

O=C1c2ccccc2C(=O)N1O
inactive: [1] 93 % of control | dose: 100.0 mg/kg/injection, schedule: Q01DX009 (ip), vehicle: saline 100 % of control

CC(C)(CCN)c1cc(CC(C)(C)C2(C)OCCO2)no1
inactive: [2] 113 % of control | [3] 108 % of control | [4] 113 % of control

Cc1ccc2c(c1)nc1sc(C)cc(=O)n12
inactive: [5] 97 % of control | [6] 95 % of control | [7] 92 % of control

C[N+](C)(C)CCC[n+]1ccc(CCn2ccc3ccccc32)cc1
inactive: dose: 25.0 mg/kg/injection, schedule: Q01DX001 (ip), vehicle: saline 93 % of control | [8] 92 % of control | [9] 102 % of control

O=C1CC2C1C1C=CC2n2c(=O)n(-c3ccccc3)c(=O)n21 (stereo not given)
inactive: dose: 12.5 mg/kg/injection, schedule: Q04DX002 (ip), vehicle: saline with Tween-80 98 % of control | dose: 25.0 mg/kg/injection, schedule: Q04DX002 (ip), vehicle: saline with Tween-80 99 % of control | dose: 50.0 mg/kg/injection, schedule: Q04DX002 (ip), vehicle: saline with Tween-80 101 % of control

O=C(O)CNC(=O)CNC(=O)C(Cc1ccccc1)NC(=O)OCc1ccccc1 (stereo not drawn) (Cbz-[ξF]-Gly-Gly-OH)
inactive: [2] 100 % of control | [3] 99 % of control | [4] 91 % of control

O=C1NC(O)(c2ccccc2)c2cnncc21 (stereo not given)
inactive: [10] 90 % of control | [11] 93 % of control | [12] 93 % of control

CCOC1CC(=O)C2(C)C3CCC4(C)C(C(C)C5CC(C)=C(C)C(=O)O5)CCC4C3CC3OC32C1O (stereo not given)
inactive: dose: 9.12 mg/kg/injection, schedule: Q01DX009 (ip), vehicle: saline + alcohol 101 % of control | dose: 18.25 mg/kg/injection, schedule: Q01DX009 (ip), vehicle: saline + alcohol 96 % of control | dose: 36.5 mg/kg/injection, schedule: Q01DX009 (ip), vehicle: saline + alcohol 100 % of control

CCOC(=O)c1cc(=O)oc(=O)[nH]1
inactive: dose: 6.25 mg/kg/injection, schedule: Q04DX003 (ip), vehicle: Klucel (hydroxypropylcellulose) (HPC) 105 % of control | dose: 12.5 mg/kg/injection, schedule: Q04DX003 (ip), vehicle: Klucel (hydroxypropylcellulose) (HPC) 112 % of control | dose: 25.0 mg/kg/injection, schedule: Q04DX003 (ip), vehicle: Klucel (hydroxypropylcellulose) (HPC) 114 % of control | dose: 100.0 mg/kg/injection, schedule: Q04DX003 (ip), vehicle: Klucel (hydroxypropylcellulose) (HPC) 89 % of control | dose: 200.0 mg/kg/injection, schedule: Q04DX003 (ip), vehicle: Klucel (hydroxypropylcellulose) (HPC) 87 % of control

CC(=O)OCC1=CCCC1=O
inactive: dose: 25.0 mg/kg/injection, schedule: Q01DX009 (ip), vehicle: Klucel (hydroxypropylcellulose) (HPC) 111 % of control

COc1ccc(OC)c(C2SCC(=O)N2c2nncs2)c1 (stereo not given)
inactive: [10] 104 % of control | [11] 97 % of control | [12] 97 % of control

CC1=NN(c2ccccc2)C/C1=N\O
inactive: dose: 50.0 mg/kg/injection, schedule: Q01DX005 (ip), vehicle: Klucel (hydroxypropylcellulose) (HPC) 103 % of control | dose: 100.0 mg/kg/injection, schedule: Q01DX005 (ip), vehicle: Klucel (hydroxypropylcellulose) (HPC) 102 % of control

CCOC(=O)CC1C(=O)N(c2nc(-c3ccc(Br)cc3)cs2)N=C1C (stereo not given)
inactive: [5] 96 % of control | [6] 101 % of control | [7] 103 % of control

CC1(c2ccccc2)NC(=O)NC1=O (stereo not given)
inactive: [8] 100 % of control | [9] 110 % of control | dose: 200.0 mg/kg/injection, schedule: Q01DX001 (ip), vehicle: saline 115 % of control

CNC1C(c2ccc(C)cc2)=NN(c2ccccc2)C1c1ccccc1 (stereo not given)
inactive: dose: 100.0 mg/kg/injection, schedule: Q01DX001 (ip), vehicle: saline sonified 100 % of control | dose: 200.0 mg/kg/injection, schedule: Q01DX001 (ip), vehicle: saline sonified 100 % of control | dose: 400.0 mg/kg/injection, schedule: Q01DX001 (ip), vehicle: saline sonified 105 % of control

CC[C@@H]1C[C@@H]2CN3CCc4c([nH]c5ccc(OC)c(Cc6ccc(OC)c(OC)c6)c45)C(C(=O)OC)(C2)C13
inactive: dose: 2.5 mg/kg/injection, schedule: Q01DX009 (ip), vehicle: Klucel (hydroxypropylcellulose) (HPC) 88 % of control | dose: 5.0 mg/kg/injection, schedule: Q01DX009 (ip), vehicle: Klucel (hydroxypropylcellulose) (HPC) 103 % of control | dose: 10.0 mg/kg/injection, schedule: Q01DX009 (ip), vehicle: Klucel (hydroxypropylcellulose) (HPC) 92 % of control | dose: 20.0 mg/kg/injection, schedule: Q01DX009 (ip), vehicle: Klucel (hydroxypropylcellulose) (HPC) 95 % of control

CC1OC(OCC2OC(Oc3c(-c4ccc(O)cc4)oc4cc(OC5OC(C)C(O)C(O)C5O)cc(O)c4c3=O)C(O)C(O)C2O)C(O)C(O)C1O (stereo not given)
inactive: [13] 95 % of control | dose: 100.0 mg/kg/injection, schedule: Q04DX003 (ip), vehicle: saline sonified 90 % of control | [14] 95 % of control | dose: 200.0 mg/kg/injection, schedule: Q04DX003 (ip), vehicle: saline sonified 90 % of control | [15] 95 % of control | dose: 400.0 mg/kg/injection, schedule: Q04DX003 (ip), vehicle: saline sonified 90 % of control

COc1cc2c(c(OC)c1OC)-c1ccc(SC)c(=O)cc1[C@@H](NC1OC(CO)C(O)C(O)C1O)CC2 (stereo not given in full)
inactive: dose: 3.12 mg/kg/injection, schedule: Q01DX009 (ip), vehicle: saline 107 % of control and 111 % of control | dose: 3.13 mg/kg/injection, schedule: Q01DX009 (ip), vehicle: saline 115 % of control | dose: 6.25 mg/kg/injection, schedule: Q01DX009 (ip), vehicle: saline 118 % of control [middle of 4 runs] | [16] 123 % of control | [17] 118 % of control and 122 % of control

CCCCCC(CN(C)C)C(O)/C=C/c1ccc(Cl)cc1Cl (stereo not given)
inactive: [16] 108 % of control | [17] 100 % of control | [1] 99 % of control

Fc1c(F)c(F)c(CCc2c(F)c(F)c(F)c(F)c2F)c(F)c1F
inactive: [10] 99 % of control | [11] 89 % of control | [12] 88 % of control

COCCOCCOCCOCCOCCN
inactive: dose: 100.0 mg/kg/injection, schedule: Q04DX003 (ip), vehicle: saline 100 % of control | dose: 200.0 mg/kg/injection, schedule: Q04DX003 (ip), vehicle: saline 100 % of control | dose: 400.0 mg/kg/injection, schedule: Q04DX003 (ip), vehicle: saline 104 % of control

COc1cc2c(cc1OC(C)=O)C(=O)C(Br)(Br)CCC2
inactive: dose: 15.0 mg/kg/injection, schedule: Q01DX009 (ip), vehicle: saline with Tween-80 98 % of control | dose: 25.0 mg/kg/injection, schedule: Q01DX009 (ip), vehicle: saline with Tween-80 103 % of control | dose: 30.0 mg/kg/injection, schedule: Q01DX009 (ip), vehicle: saline with Tween-80 106 % of control | [18] 100 % of control and 116 % of control | dose: 60.0 mg/kg/injection, schedule: Q01DX009 (ip), vehicle: saline with Tween-80 100 % of control | [13] 99 % of control | [14] 106 % of control

O=C(Nc1ccc2ccccc2c1)C1C(=O)C(=O)N(c2ccc3ccccc3c2)C1=O (stereo not given)
inactive: [5] 106 % of control | [6] 106 % of control | [7] 108 % of control

CC(=O)OC1CC2CCC1(CC(=O)c1ccccc1)C2(C)C (stereo not given)
inactive: [18] 96 % of control | [13] 92 % of control | [14] 100 % of control

O=C1NC(=O)C2(CCc3ccccc3C2)N1 (stereo not given)
inactive: [18] 100 % of control | [13] 100 % of control | [14] 96 % of control | [15] 97 % of control

C=CCCC1CN2CCc3cc(OC)c(OC)cc3C2CC1=O (stereo not given)
inactive: [5] 113 % of control | [6] 103 % of control | [7] 105 % of control
